Measured values from patent US5100895A, “Heterocyclic compounds and their preparation and use” (Novo Nordisk A/S, priority 1989, dated 1992).

Test system: benzodiazepine receptors
Assay: in vivo displacement of 3H-flunitrazepam specific binding to benzodiazepine receptors in a living brain
Details: dose which causes specific binding of 3H-flunitrazepam to benzodiazepine receptors in a living brain to be reduced to 50% of the control value
Excerpt: The pharmaceutical properties of the compounds of the invention can be illustrated by determining their capability for displacing radioactive labelled flunitrazepam from benzodiazepine receptors.
The displacement activity of the compounds of the invention may be found by determining the ED50 value. The ED50 value represents the dose (mg/kg) of a test substance which causes the specific binding of ^3 H-flunitrazepam to benzodiazepine receptors in a living brain to be reduced to 50% of the control value.
Such an in vivo test is carried out as described in U.S. Pat. No. 4,774,245.

With `c1ccc2c(c1)C1=NCCN1c1c(-c3noc(C4CC4)n3)ncn1-2` [Compound 1, 5-(5-cyclopropyl-1,2,4-oxadiazol-3-yl)-2,3-dihydrodiimidazol[1,5-a:1',2'-c]quinazoline] the ED50 was 0.47 mg/kg.

Work on `Fc1ccc2c(c1)C1=NCCN1c1c(-c3noc(C4CC4)n3)ncn1-2` [Compound 21, 5-(5-Cyclopropyl-1,2,4-oxadiazol-3-yl)-11-fluoro-2,3-dihydrodiimidazo[1,5-a:1',2'-c]quinazoline] yielded an ED50 of 0.26 mg/kg.

Compound `FC(F)(F)c1cccc2c1C1=NCCN1c1c(-c3nc(C4CC4)no3)ncn1-2` [Compound 19, 5-(3-Cyclopropyl-1,2,4-oxadiazol-5-yl)-2,3-dihydro-12-trifluoromethyldiimidazo[1,5-a:1',2'-c]quinazoline] has an ED50 of 0.08 mg/kg.

`Brc1cccc2c1C1=NCCN1c1c(-c3noc(C4CC4)n3)ncn1-2` [Compound 7, 12-Bromo-5-(5-cyclopropyl-1,2,4-oxadiazol-3-yl)-2,3-dihydroiimidazo[1,5-a:1',2'-c]quinazoline] was tested, and the ED50 was 0.92 mg/kg.

In the case of `FC(F)(F)c1cccc2c1c1nccn1c1c(-c3noc(C4CC4)n3)ncn21` [Compound 28, 5-(5-Cyclopropyl-1,2,4-oxadiazol-3-yl)-12-trifluoromethyldiimidazo[1,5-a:1',2'-c]quinazoline], the ED50 is reported as 0.12 mg/kg.

`Clc1cccc2c1C1=NCCN1c1c(-c3noc(C4CC4)n3)ncn1-2` [Compound 6, 12-Chloro-5-(5-cyclopropyl-1,2,4-oxadiazol-3-yl)-2,3-dihydrodiimidazo[1,5-a:1',2'-c]quinazoline] showed an ED50 of 0.23 mg/kg.

`FC(F)(F)c1cccc2c1C1=NCCN1c1c(-c3noc(C4CC4)n3)ncn1-2` [Compound 12, 5-(5-Cyclopropyl-1,2,4-oxadiazol-3-yl)-2,3-dihydro-12-trifluoromethyldiimidazo[1,5-a:1',2'-c]quinazoline] was tested, and the ED50 was 0.08 mg/kg.

Compound `Brc1cccc2c1C1=NCCN1c1c(-c3nc(C4CC4)no3)ncn1-2` [Compound 8, 12-Bromo-5-(3-cyclopropyl-1,2,4-oxadiazol-5-yl)-2,3-dihydrodiimidazo[1,5-a:1',2'-c]quinazoline] has an ED50 of 1.7 mg/kg.
